Source: patent US11981677B2, “Further substituted triazolo quinoxaline derivatives” (Grünenthal GmbH, priority 2018, dated 2024)

Biological target: T1, Glucocorticoid Receptor (Homo sapiens, UniProt P04150)
T1 construct: expressed in transfected cells
T1 sequence (P04150 524-758 limits assumed): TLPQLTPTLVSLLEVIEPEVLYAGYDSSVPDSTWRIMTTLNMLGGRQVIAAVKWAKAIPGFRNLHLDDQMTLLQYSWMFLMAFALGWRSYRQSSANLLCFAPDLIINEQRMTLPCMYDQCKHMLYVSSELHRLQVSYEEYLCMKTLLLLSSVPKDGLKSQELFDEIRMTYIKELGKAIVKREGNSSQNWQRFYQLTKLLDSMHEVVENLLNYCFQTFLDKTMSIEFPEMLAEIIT
Test: Agonistic mode of action on the glucocorticoid receptor (CHO-Gal4/GR luciferase reporter cell line)
Format: cell-based
Conditions: CHO-Gal4/GR luciferase reporter cells; observed in the agonistic assay or the antagonistic assay (mode not given); read-out: IC50 or EC50 range
In short: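 CHO cells stably expressing GAL4 DBD–GR ligand-binding domain fusion with GAL4-UAS firefly luciferase reporter, seeded 24 h, then treated in Opti-MEM with 8 half-log concentrations from 10 μM to 0.003 μM (0.5% DMSO), quadruplicate. Luminescence read on FLIPR after lysis with Triton/luciferin; EC50 calculated.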

SMILES	IC50 or EC50 (antagonist or agonist mode, not stated per compound)
COc1c(-c2cc(F)cc3c2ccn3CCO)cc(F)c2c1-n1c(C)nnc1C(C)(C)N2 [Example 55, 2-[6-Fluoro-4-(6-fluoro-9-methoxy-1,4,4-trimethyl-5H-[1,2,4]triazolo[4,3-a]quinoxalin-8-yl)-1H-indol-1-yl]-EtOH]	100 to 1000 nM
CNc1c(-c2cc(F)cc3c(C)c[nH]c23)cc(F)c2c1-n1c(C)nnc1C(C)(C)N2 [Example 487, [6-Fluoro-8-(5-fluoro-3-methyl-1H-indol-7-yl)-1,4,4-trimethyl-5H-[1,2,4]triazolo[4,3-a]quinoxalin-9-yl]-methyl-amine]	< 100 nM
Cc1c(-c2ccc(C#N)c3[nH]ccc23)c(F)c(F)c2c1-n1c(C)nnc1C(C)(C)N2 [Example 520, 4-(6,7-difluoro-1,4,4,9-tetramethyl-4,5-dihydro-[1,2,4]triazolo[4,3-a]quinoxalin-8-yl)-1H-indole-7-carbonitrile]	100 to 1000 nM
Cc1c(-c2cccc3[nH]ccc23)c(F)c(F)c2c1-n1c(C)nnc1C(C)(C)N2 [Example 512, 6,7-Difluoro-8-(1H-indol-4-yl)-1,4,4,9-tetramethyl-5H-[1,2,4]triazolo[4,3-a]quinoxaline]	< 100 nM
Cc1nnc2n1-c1c(c(F)c(F)c(-c3cc(F)cc4c3ccn4S(C)(=O)=O)c1C(F)(F)F)NC2(C)C [Example 518, 6,7-difluoro-8-(6-fluoro-1-(methylsulfonyl)-1H-indol-4-yl)-1,4,4-trimethyl-9-(trifluoromethyl)-4,5-dihydro-[1,2,4]triazolo[4,3-a]quinoxaline]	100 to 1000 nM
Cc1c(-c2cc(C#N)cc3[nH]ccc23)cc(F)c2c1-n1c(C)nnc1C(C)(C)N2 [Example 477, 4-(6-Fluoro-1,4,4,9-tetramethyl-5H-[1,2,4]triazolo[4,3-a]quinoxalin-8-yl)-1H-indole-6-carbonitrile]	100 to 1000 nM
COc1c(-c2cc(F)cc3c2ccn3S(C)(=O)=O)c(F)c(F)c2c1-n1c(C)nnc1C(C)(C)N2 [Example 498, 6,7-Difluoro-8-(6-fluoro-1-methylsulfonyl-1H-indol-4-yl)-9-methoxy-1,4,4-trimethyl-5H-[1,2,4]triazolo[4,3-a]quinoxaline]	< 100 nM
Cc1c(-c2cccc3c2cnn3S(C)(=O)=O)c(F)c(Cl)c2c1-n1c(C)nnc1C(C)(C)N2 [Example 509, 6-Chloro-7-fluoro-1,4,4,9-tetramethyl-8-(1-methylsulfonyl-1H-indazol-4-yl)-5H-[1,2,4]triazolo[4,3-a]quinoxaline]	100 to 1000 nM
COc1c(-c2cc(F)cc3c2ccn3S(C)(=O)=O)cc(F)c2c1-n1c(C3CC3)nnc1C(C)(C)N2 [Example 59, 1-Cyclopropyl-6-fluoro-8-(6-fluoro-1-methylsulfonyl-1H-indol-4-yl)-9-methoxy-4,4-dimethyl-5H-[1,2,4]triazolo[4,3-a]quinoxaline]	1000 to 15000 nM
CCc1c(-c2cc(F)cc3c2cnn3S(C)(=O)=O)cc(F)c2c1-n1c(C)nnc1C(C)(C)N2 [Example 53, 9-Ethyl-6-fluoro-8-(6-fluoro-1-methylsulfonyl-1H-indazol-4-yl)-1,4,4-trimethyl-5H-[1,2,4]triazolo[4,3-a]quinoxaline]	100 to 1000 nM
CCc1c(-c2cc(F)cc3c2ccn3CCO)cc(F)c2c1-n1c(C)nnc1C(C)(C)N2 [Example 464, 2-[4-(9-Ethyl-6-fluoro-1,4,4-trimethyl-5H-[1,2,4]triazolo[4,3-a]quinoxalin-8-yl)-6-fluoro-1H-indol-1-yl]-EtOH]	100 to 1000 nM
CCc1c(-c2cc(F)cc3c2ccn3S(C)(=O)=O)cc(F)c2c1-n1c(C)nnc1C(C)(C)N2 [Example 48, 9-Ethyl-6-fluoro-8-(6-fluoro-1-methylsulfonyl-1H-indol-4-yl)-1,4,4-trimethyl-5H-[1,2,4]triazolo[4,3-a]quinoxaline]	< 100 nM
